Reference: US9499493B2, “2,4-pyrimidinediamine compounds and their uses” (Rigel Pharmaceuticals, Inc., priority 2002, dated 2016)

Tested on: bone marrow derived mast cells (BMMC)
Test: BMMC high cell density IgE activation: histamine
Assay type: cell-based, mouse
Settings: anti-IgE, second part of TABLE 1
Outline: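 IgE-sensitized BMMC (1-3×10^6 cells/ml, MT buffer) were pretreated with compound for 1 h at 37 °C in 0.5% DMSO, then stimulated with DNP-BSA (6× stimulus, 60 ng/ml) for 1 h. Supernatant was taken, and cells were re-incubated 4–5 h in WEI-conditioned medium with compound. Mediators were quantified by ELISA.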

## CNC(=O)COc1cccc(Nc2ncc(F)c(Nc3ccc4c(c3)NCCO4)n2)c1 [R921219, N4-(1,4-Benzoxazin-6-yl)-5-fluoro-N2-[3-(N-methylamino)carbonylmethyleneoxyphenyl]-2,4-pyrimidinediamine]
  IC50: 58 nM
